Experimental data as given in patent US20110039721A1, “METHOD FOR PREDICTION ABOUT CARCINOGENICITY OF SUBSTANCE IN RODENT” (Chemicals Evaluation and Research Institute, priority 2007, published 2011).

Columns and labels:
[1] = tested on: mRNA expressed from the genes (A) to (D) in rat liver; assay: Behavior of genes (mRNA expression level, oligo-DNA microarray) in rat liver after 28-day oral administration; type: in vivo; details: rat, in vivo
Procedure, shortened: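 Male F344 SPF rats, 5 weeks old, four per group, received carcinogens, non-carcinogens or solvent vehicle by oral gavage once daily for 28 days. Liver total RNA was then extracted. Changes of ≥1.5-fold or ≤1/1.5 versus vehicle control, in a consistent direction across carcinogens, counted as significant.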

[2] = tested on: rodent; details: in vivo; cited from earlier work
[3] = tested on: liver; details: in vivo; cited from earlier work

O=C1N=C([O-])NC1(c1ccccc1)c1ccccc1.[Na+] [TS069, Phenytoin Na]
Behavior of gene caused by administration of chemical substance, Gene No. 154 [1]: +
Behavior of gene caused by administration of chemical substance, Gene No. 533 [1]: −
Behavior of gene caused by administration of chemical substance, Gene No. 725 [1]: +
Behavior of gene caused by administration of chemical substance, Gene No. 813 [1]: −
Behavior of gene caused by administration of chemical substance, Gene No. 893 [1]: −
Behavior of gene caused by administration of chemical substance, Gene No. 1119 [1]: −
Behavior of gene caused by administration of chemical substance, Gene No. 1131 [1]: −
Behavior of gene caused by administration of chemical substance, Gene No. 1163 [1]: −
Behavior of gene caused by administration of chemical substance, Gene No. 1334 [1]: −
Behavior of gene caused by administration of chemical substance, Gene No. 1494 [1]: +
Behavior of gene caused by administration of chemical substance, Gene No. 1562 [1]: −
Behavior of gene caused by administration of chemical substance, Gene No. 1741 [1]: +
Behavior of gene caused by administration of chemical substance, Gene No. 1993 [1]: −
Behavior of gene caused by administration of chemical substance, Gene No. 2026 [1]: −
Behavior of gene caused by administration of chemical substance, Gene No. 2045 [1]: +
Behavior of gene caused by administration of chemical substance, Gene No. 2203 [1]: +
Behavior of gene caused by administration of chemical substance, Gene No. 2494 [1]: −
Behavior of gene caused by administration of chemical substance, Gene No. 2546 [1]: −
Behavior of gene caused by administration of chemical substance, Gene No. 3776 [1]: −
Behavior of gene caused by administration of chemical substance, Gene No. 3929 [1]: +
Behavior of gene caused by administration of chemical substance, Gene No. 4095 [1]: +
Behavior of gene caused by administration of chemical substance, Gene No. 4218 [1]: −
Behavior of gene caused by administration of chemical substance, Gene No. 4846 [1]: −
Behavior of gene caused by administration of chemical substance, Gene No. 4973 [1]: +
Behavior of gene caused by administration of chemical substance, Gene No. 5600 [1]: −
Behavior of gene caused by administration of chemical substance, Gene No. 5634 [1]: +
Behavior of gene caused by administration of chemical substance, Gene No. 5726 [1]: −
Behavior of gene caused by administration of chemical substance, Gene No. 5878 [1]: −
Behavior of gene caused by administration of chemical substance, Gene No. 6026 [1]: −
Behavior of gene caused by administration of chemical substance, Gene No. 6182 [1]: +
Behavior of gene caused by administration of chemical substance, Gene No. 6303 [1]: −
Behavior of gene caused by administration of chemical substance, Gene No. 6620 [1]: −
Behavior of gene caused by administration of chemical substance, Gene No. 6742 [1]: −
Carcinogenicity [2]: C+
Liver carcinogenicity [3]: Cr−
